Laboratory results from patent US6723710B2, “Compositions for inhibiting arginase activity” (The Trustees of the University of Pennsylvania, priority 1997, dated 2004).
“Also recorded” adds a separate entry of the source.

How the values were obtained:
rat liver arginase [1] = target: T1, rat liver arginase (Rattus norvegicus, UniProt P07824); assay: [14C-guanidino]-arginine arginase activity assay (Example 2); format: biochemical; conditions: 100 millimolar CHES, pH 9.0, 1 millimolar arginine; read-out: IC50 for inhibition of arginase
T1 sequence (P07824 1-323): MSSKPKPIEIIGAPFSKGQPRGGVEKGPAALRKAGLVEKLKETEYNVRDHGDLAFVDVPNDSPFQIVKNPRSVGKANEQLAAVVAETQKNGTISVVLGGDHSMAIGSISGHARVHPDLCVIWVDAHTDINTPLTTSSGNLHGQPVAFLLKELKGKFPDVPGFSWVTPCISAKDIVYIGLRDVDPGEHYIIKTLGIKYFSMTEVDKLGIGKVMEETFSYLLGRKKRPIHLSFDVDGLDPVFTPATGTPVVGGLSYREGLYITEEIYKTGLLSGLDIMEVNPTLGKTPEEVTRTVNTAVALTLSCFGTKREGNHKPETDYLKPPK
Protocol: Arginase activity was assessed using the ^(14C-guanidino)-arginine assay of Rüegg et al. (1980, Anal. Biochem. 102:206-212), as described (Reczkowski et al., 1994, Arch. Biochem. Biophys. 312:31-37). […] […] et al., 1994, Biochem. Biophys. Res.

liver arginase activity = assay: arginase activity in liver homogenate; format: biochemical, opossum
Text: (§1) Tissue samples of the opossum internal anal sphincter muscle (IAS), adjoining rectal tissue, liver, and brain were homogenized using an ULTRATURRAX™ tissue homogenizer (Tekamr, Cincinnati, Ohio) in a solution comprising 10 millimolar Tris-HCl, 150 millimolar KCl, and 25 millimolar MnCl2, at pH 7.4. The homogenates were dialyzed overnight against the same solution. Dialyzed homogenates were centrifuged to remove insoluble material and concentrated with Amicon CENTRICON™ 30 microconcentrators to yield stock protein preparations having protein concentrations of 2.4 milligrams per milliliter for IAS smooth muscle, 3.6 milligrams per milliliter for rectal smooth muscle, 3 milligrams per milliliter for brain, and 17.5 milligrams per milliliter for liver. Protein concentrations were estimated with the Pierce Coomassie Protein Reagent kit using bovine serum albumin as a standard.
(§2) Arginase activity in tissue homogenates was evaluated using the radioactive L-[guanidino^14C]arginine assay of Rüegg and Russell (1980, Anal. Biochem. 102:206-212). Assays were performed using a solution comprising 100 millimolar CHES-NaOH and 0.1 millimolar MnCl2 at pH 9.0. The reactions were initiated by addition of 5 microliters of tissue homogenate to 45 microliters of reaction mixture that contained the CHES buffer, the appropriate concentration of arginine (0.5 to 5 millimolar) and about 5.0×10^4 counts per minute of L-[guanidino-^14C]arginine. IAS, rectal muscle, and brain homogenates were incubated with the assay mixture at room temperature for one hour, and the liver sample was incubated for 5 minutes. The reactions were stopped by addition of 200 microliters of a stop solution containing 0.25 molar acetic acid, 7 molar urea, and 10 millimolar arginase at pH 4.5. Arginase has essentially no activity at the low pH of the stop solution. [^14C] Urea was separated from non-reacted L-[guanidino-^14C]arginine by treatment with 200 μl of 1:1 v/v slurry of DOWEX™ 50W-X8 in water, and quantitated by adding 200 microliters of the supernatant from the DOWEX™ treatment to 3 milliliters of LIQUISCENT™ (National Diagnostics) for liquid scintillation counting in a Beckman LS 5000CE counter. The data were analyzed using double-reciprocal plots of the initial velocity measurements; standard errors were determined by regression analysis.
Assays in the presence of the inhibitors N^ω-hydroxy-L-arginine (1 to 100 micromolar) and ABHA (0.05 to 100 micromolar) were performed as described above. The amino acid D-ornithine served as a control in these experiments, since this amino acid, unlike L-omithine, is not an inhibitor of arginase.

brain arginase activity = assay: arginase activity in brain homogenate; format: biochemical, opossum
Text: as §1
as §2, with “The reactions were stopped by addition of 200 microliters of a stop solution containing 0.25 molar acetic acid, 7 molar urea, and 10 millimolar arginase at pH 4.5. Arginase has essentially no activity at the low pH of the stop solution. [^14C]” left out, “analysis. […]” for “analysis.”

[2] = test system: penile corpus cavernosum smooth muscle; assay: organ bath, NANC nerve-mediated relaxation of penile corpus cavernosum tissue strips; set-up: species or system rabbit
Text: Penile cavernosal tissue strips were obtained from male New Zealand white rabbits (3.0-3.5 kilogram body weight) and mounted in organ bath preparations, as described (Kim et al., 1991, J. Clin. Invest. 88:112-118). Tissues strips at optimal isometric tension were contracted using 40 nanomolar endothelin-1 and subjected to electrical field stimulation (EFS), by means of two platinum plate electrodes positioned on either side of the tissue and a current amplifier in series with a square pulse stimulator. Each stimulation period lasted 20 seconds with trains of square waves having a pulse duration of 0.5 milliseconds and a potential difference of 10 volts. Frequency was varied from 1 to 10 Hertz. For all experiments, NANC responses were isolated in tissue strips by treatment with indomethacin to inhibit vasoactive prostanoid synthesis, 10 micromolar bretylium to inhibit adrenergic neurotransmission, and 1 micromolar atropine to block muscarinic acetylcholine receptors. All tissues were first subject to EFS in the absence of ABHA, and then stimulations were repeated in the presence of increasing concentrations (0.1 to 1.0 millimolar) ABHA following a 20 minute incubation period. […] Responses were further analyzed by determining the ratios of the responses in the presence and absence of ABHA treatment.

arginase [3] = target: T2, arginase (Rattus norvegicus, UniProt P07824); assay: biochemical; conditions: Kd from competition binding experiments using N-hydroxyarginine, pH 7.5 and pH 9.0
T2 sequence (P07824 1-323): T1 sequence (P07824 1-323)
Text: Additional evidence for high affinity binding of arginase and ABHA was derived from competition binding experiments using ABHA and N-hydroxyarginine, as monitored by fluorescence spectroscopy. Addition of N-hydroxyarginine to a solution of arginase results in a significant decrease in intrinsic protein fluorescence at 327 nanometers.

rat liver arginase [4] = target: T1, rat liver arginase; assay: continuous chromogenic arginase assay with substrate 1-nitro-3-guanidinobenzene (compound 18); format: biochemical; set-up: made in house; conditions: 2 millimolar compound 18 as substrate; pseudo-turnover number, smaller = better inhibition
Protocol: The activity of wild-type arginase was monitored spectrophotometrically using a Pharmacia BIOTECH ULTROSPEC™ 2000. Assays were performed in a solution comprising 100 micromolar MnCl2 and 50 millimolar bicine-NaOH (pH 9.0). […] Eadie-Hofstee plots were used to analyze the data.

arginase [5] = target: T2, arginase; assay: dialysis/dilution reversibility experiments with pre-incubated arginase-inhibitor complex; format: biochemical; set-up: made in house
Protocol: Dialysis experiments of arginase with the arginase-compound 7 and arginase-compound 15 complexes were performed in following way. Thirty microliters of arginase at a concentration of 11.2 milligrams per milliliter were pre-incubated for thirty minutes with an appropriate concentration of compound 7 (5 microliters of 100 micromolar stock solution). […] Pre-incubates were then added to bicine buffer containing 4 millimolar compound 18. The final volume of the assay reaction solution was 1 milliliter.

SMILES: N[C@@H](CCCCB(O)O)C(=O)O [compound 7, 2(S)-amino-6-boronohexanoic acid]
- IC50 (rat liver arginase [1]): 0.8 µM
- Ki (liver arginase activity; arginine fixed at Km, assuming competitive inhibition, read-out: estimated Ki, liver arginase activity): 0.19 µM
- times more potent than L-HO-Arg, liver (liver arginase activity; liver homogenate): 5 times
- potency against liver arginase activity relative to non-hepatic tissues (liver arginase activity; liver versus IAS, rectum, brain): more potent inhibitor of non-hepatic than hepatic arginase activities
- IC50 (liver arginase activity; liver, read-out: IC50 for inhibition of arginase activity, liver homogenate): 0.44 µM
- Ki (brain arginase activity; arginine fixed at Km, assuming competitive inhibition, read-out: estimated Ki, brain arginase activity): 0.018 µM
- times more potent than L-HO-Arg, brain (brain arginase activity; brain homogenate): 800 times
- enhancement of relaxation in response to EFS ([2]; 0.1 to 1.0 millimolar ABHA, 1 to 10 Hertz): significant enhancement; also recorded: significantly enhanced relaxation; also recorded: statistically significant
- relaxation in the absence of electrical stimulation ([2]; corpus cavernosum strips contracted with endothelin-1): moderate relaxation
- Kd (arginase [3]): ≤ 0.1 µM
- tnpseudo (moles of inhibitor/mole of arginase) (rat liver arginase [4]): 0.7 ± 0.1 moles of inhibitor/mole of arginase
- inhibited velocity, control without pre-incubation (arginase [5]; 9.6 micromolar arginase, 0.5 micromolar ABHA): 0.47 micromolar per minute
- reversibility of inhibition (arginase [5]; 30 minutes pre-incubation): reversible inhibitor
- observed inhibited velocity, diluted pre-incubate (arginase [5]; 30 minutes pre-incubation, diluted to 0.5 micromolar ABHA and 9.6 micromolar arginase): 0.46 micromolar per minute
- reversibility of inhibition (arginase [5]; 30 minutes pre-incubation, listed as ABHA): completely instantaneous reversible inhibition
